Reference: patent publication US20080280862A1, “Methods, compositions, and kits for the treatment of pain” (priority 2007, published 2008)

Key:
[1] = system: TNFα; experiment: TNFα secretion by human white blood cells stimulated with PMA/ionomycin, synergy score; type: cell-based; details: PBMC stimulated with PMA/Ionomycin
Summary of the method: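 Diluted human white blood cells stimulated with 10 ng/mL PMA and 750 ng/mL ionomycin (final) plus compound combinations at various concentrations, 16-18 h at 37 °C. Secreted TNFα measured by sandwich luminescent ELISA; synergy score is the dilution-weighted volume between measured and Loewe additive inhibition surfaces.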

[2] = system: carrageenan-induced pain model in rats; experiment: Carrageenan pain model, mechanical allodynia by Von Frey filaments; type: in vivo, Sprague-Dawley rats; details: for Mean AUC ± SEM: AUC from 20 minutes through 120 minutes following carrageenan injection; for Mean change from baseline ± SEM: Experiment Two; for mean change from baseline: Table 4
Method: The carrageenan model is a fast, reliable model used to assess the ability of analgesics to block inflammatory pain. The analgesic effects of test article combinations on pain generation are assayed using the carrageenan-induced pain model in rats. Adult male Sprague-Dawley rats are administered study drugs intraperitoneally (vehicle, tricyclic compound (TCA), steroid or TCA/Steroid test article combinations) once daily for 2 days (day −2 and day −1) and 30 minutes prior to the carrageenan injection on day 0 (time=0). For the carrageenan injection, animals are lightly anesthetized and 0.1 ml of 2% carrageenan is injected into the plantar surface of the right hind paw. The positive control diclofenac at a dose of 25 mg/kg is administered intraperitoneally immediately before the carrageenan injection. Paw volumes (right and left) are measured using a plathysmometer before drug administration on day −2 and serve as a baseline measurement. The paw volumes are measured again two hours post carrageenan injection. The degree of mechanical allodynia is measured by a blinded observer using Von Frey filaments applied to the plantar surface of the hind paws in an increasing numerical order. Each filament increases the force applied on the paw. The filaments are applied until animal paw withdrawal is achieved. This procedure is carried out before drug administration (day −2), on day −1 and on day 0 at time=0, 20, 40, 60, 80 and 120 minutes post-carrageenan. The force (expressed in grams) required for paw withdrawal after carrageenan injection is subtracted from the force required for paw withdrawal before carrageenan injection. Results are expressed as mean change from baseline across five timepoints post carrageenan injection in Table 4.
For a synergy calculation, experimental data from the carrageenan study are fitted to a median-effect model and used to calculate the parameters' median-effect dose (Dm), slope (m), correlation coefficient (r), combination index (CI) and dose-reduction index (DRI). In addition, the probability of pain inhibition occurring after single-component (nortriptyline) versus the combination drug treatments are calculated from the negative change from baseline data using a Bayesian sensitivity analysis. The likelihood of pain inhibition is characterized for nortriptyline administered alone (1 mg/kg or 3 mg/kg) versus the fixed-dose combination treatments [prednisolone (0.3 mg/kg):nortriptyline (1 mg/kg) or prednisolone (1 mg/kg):nortriptyline (3 mg/kg)] each evaluated at 60 and 80 minutes for analgesic effect.
In another example, the effects of test article combinations on pain inhibition were assayed using the carrageenan model in rodents. Desipramine was tested alone and in combination at 0.3, 1, and 3 mg/kg and prednisolone was tested similarly at 0.3, 1 and 3 mg/kg IP.

In the case of `CNCCC=C1c2ccccc2CCc2ccccc21` [Nortriptyline], the “Synergy Score based on TNF-α inhibition” value ([1]; combination with Betamethasone) is reported as 0.83, the “Synergy Score based on TNF-α inhibition” value ([1]; combination with Budesonide) is reported as 1.6 and the “Synergy Score based on TNF-α inhibition” value ([1]; combination with Dexamethasone) is reported as 1.7. For the same molecule, the “Synergy Score based on TNF-α inhibition” value ([1]; combination with Hydrocortisone) was 0.72, the “Synergy Score based on TNF-α inhibition” value ([1]; combination with Prednisolone) was 1.1 and the “Synergy Score based on TNF-α inhibition” value ([1]; combination with Triamcinolone) was 0.88. The “Mean AUC ± SEM” value ([2]; 1 mg/Kg) was 1895 ± 547.01, the “Mean AUC ± SEM” value ([2]; 3 mg/Kg) was 3082 ± 275.81 and the “Mean change from baseline ± SEM” value ([2]; first set of rows, 1 mg/kg, 20 minutes) was 16.94 ± 7.35 g. The “Mean change from baseline ± SEM” value ([2]; first set of rows, 1 mg/kg, 40 minutes) was 17.01 ± 7.37 g, the “Mean change from baseline ± SEM” value ([2]; first set of rows, 1 mg/kg, 60 minutes) was 22.36 ± 4.36 g and the “Mean change from baseline ± SEM” value ([2]; first set of rows, 1 mg/kg, 80 minutes) was 29.59 ± 4.80 g. For the same molecule, the “Mean change from baseline ± SEM” value ([2]; first set of rows, 1 mg/kg, 120 minutes) was 37.64 ± 5.20 g, the “Mean change from baseline ± SEM” value ([2]; first set of rows, 3 mg/kg, 20 minutes) was 5.83 ± 6.21 g and the “Mean change from baseline ± SEM” value ([2]; first set of rows, 3 mg/kg, 40 minutes) was 5.83 ± 6.21 g. For the same molecule, the “Mean change from baseline ± SEM” value ([2]; first set of rows, 3 mg/kg, 60 minutes) was 12.87 ± 5.09 g, the “Mean change from baseline ± SEM” value ([2]; first set of rows, 3 mg/kg, 80 minutes) was 15.84 ± 5.10 g and the “Mean change from baseline ± SEM” value ([2]; first set of rows, 3 mg/kg, 120 minutes) was 35.98 ± 4.09 g. For the same molecule, the “Mean change from baseline ± SEM” value ([2]; second set of rows, 1 mg/kg, 20 minutes) was 17.00 ± 6.43 g, the “Mean change from baseline ± SEM” value ([2]; second set of rows, 1 mg/kg, 40 minutes) was -4.25 ± 4.25 g and the “Mean change from baseline ± SEM” value ([2]; second set of rows, 1 mg/kg, 60 minutes) was 32.50 ± 4.96 g. The “Mean change from baseline ± SEM” value ([2]; second set of rows, 1 mg/kg, 80 minutes) was 29.75 ± 4.25 g, the “Mean change from baseline ± SEM” value ([2]; second set of rows, 1 mg/kg, 120 minutes) was 33.88 ± 5.21 g and the “Mean change from baseline ± SEM” value ([2]; second set of rows, 3 mg/kg, 20 minutes) was 17.00 ± 6.43 g. The “Mean change from baseline ± SEM” value ([2]; second set of rows, 3 mg/kg, 40 minutes) was 0.00 ± 6.43 g, the “Mean change from baseline ± SEM” value ([2]; second set of rows, 3 mg/kg, 60 minutes) was 17.00 ± 6.43 g and the “Mean change from baseline ± SEM” value ([2]; second set of rows, 3 mg/kg, 80 minutes) was 0.00 ± 0.00 g. The “Mean change from baseline ± SEM” value ([2]; second set of rows, 3 mg/kg, 120 minutes) was 0.00 ± 0.00 g, the “mean change from baseline” value ([2]; 1 mg/kg ip, 20 minutes post carrageenan) was 25.50 ± 7.90 grams and the “mean change from baseline” value ([2]; 1 mg/kg ip, 40 minutes post carrageenan) was −4.70 ± 8.13 grams. For the same molecule, the “mean change from baseline” value ([2]; 1 mg/kg ip, 60 minutes post carrageenan) was −59.30 ± 10.6 grams, the “mean change from baseline” value ([2]; 1 mg/kg ip, 80 minutes post carrageenan) was −99.70 ± 13.75 grams and the “mean change from baseline” value ([2]; 1 mg/kg ip, 120 minutes post carrageenan) was −146.90 ± 19.62 grams. The “mean change from baseline” value ([2]; 3 mg/kg ip, 20 minutes post carrageenan) was 7.40 ± 10.10 grams, the “mean change from baseline” value ([2]; 3 mg/kg ip, 40 minutes post carrageenan) was −49.20 ± 11.54 grams and the “mean change from baseline” value ([2]; 3 mg/kg ip, 60 minutes post carrageenan) was −109.20 ± 11.54 grams. For the same molecule, the “mean change from baseline” value ([2]; 3 mg/kg ip, 80 minutes post carrageenan) was −169.20 ± 11.54 grams, the “mean change from baseline” value ([2]; 3 mg/kg ip, 120 minutes post carrageenan) was −205.40 ± 11.35 grams and the “mean change from baseline” value ([2]; 10 mg/kg ip, 20 minutes post carrageenan) was −4.00 ± 8.20 grams. For the same molecule, the “mean change from baseline” value ([2]; 10 mg/kg ip, 40 minutes post carrageenan) was −68.60 ± 10.46 grams, the “mean change from baseline” value ([2]; 10 mg/kg ip, 60 minutes post carrageenan) was −112.80 ± 13.51 grams and the “mean change from baseline” value ([2]; 10 mg/kg ip, 80 minutes post carrageenan) was −157.00 ± 17.21 grams. The “mean change from baseline” value ([2]; 10 mg/kg ip, 120 minutes post carrageenan) was −185.80 ± 20.18 grams, the “mean change from baseline” value ([2]; 20 mg/kg ip, 20 minutes post carrageenan) was −17.60 ± 5.89 grams and the “mean change from baseline” value ([2]; 20 mg/kg ip, 40 minutes post carrageenan) was −74.20 ± 7.72 grams. For the same molecule, the “mean change from baseline” value ([2]; 20 mg/kg ip, 60 minutes post carrageenan) was −130.80 ± 10.37 grams, the “mean change from baseline” value ([2]; 20 mg/kg ip, 80 minutes post carrageenan) was −190.80 ± 10.37 grams and the “mean change from baseline” value ([2]; 20 mg/kg ip, 120 minutes post carrageenan) was −255.40 ± 14.97 grams. The “decrease of median-effect dose (Dm) after co-administration compared to the monotherapy” value ([2]; median-effect model, prednisolone/nortriptyline 1:3 fixed ratios) was 4 fold.
